Results as given in patent publication US20040265846A1, “Adrenergic receptors” (DUKE UNIVERSITY, priority 2002, published 2004).
Numbering of substitutions follows the chain as printed. Like-named read-outs stand apart in the source and are kept apart here.

How the values were obtained:
[1] = system: α1aAR F308 / F312 substituted receptors; conditions: cited from earlier work
human α1aAR WT [2] = target: T1, human α1aAR WT (Homo sapiens, UniProt P35348); assay: NE-induced desensitization of IP response, WT; type: cell-based; conditions: 10 min 10 μM NE pretreatment, compared with unpretreated
T1 construct: expressed in transfected cells
T1 sequence (P35348 1-466): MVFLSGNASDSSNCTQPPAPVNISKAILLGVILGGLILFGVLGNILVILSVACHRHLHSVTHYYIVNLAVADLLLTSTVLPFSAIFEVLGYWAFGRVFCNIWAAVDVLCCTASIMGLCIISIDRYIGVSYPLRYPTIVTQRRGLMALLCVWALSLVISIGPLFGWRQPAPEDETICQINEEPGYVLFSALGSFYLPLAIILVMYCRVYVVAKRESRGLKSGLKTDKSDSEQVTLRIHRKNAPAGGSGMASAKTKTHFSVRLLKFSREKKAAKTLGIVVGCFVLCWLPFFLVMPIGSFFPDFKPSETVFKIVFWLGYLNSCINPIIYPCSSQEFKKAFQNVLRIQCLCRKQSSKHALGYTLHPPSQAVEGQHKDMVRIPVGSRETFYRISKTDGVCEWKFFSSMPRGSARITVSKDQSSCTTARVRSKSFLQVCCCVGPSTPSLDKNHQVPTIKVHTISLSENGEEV
Method: (§3) The extent of desensitization was expressed as percent of reduction of IP response in pretreated cells compared with the response in naive cells. n=3-6. […] High-expression clones. […] Low-expression clones. Measurement of Intracellular Inositol Phosphate (IP) Production. […] Measurement of intracellular IP production was performed under serum-free conditions. […] For all experiments, membranes were collected for receptor quantititation and cells were counted at the time of assay.

human α1aAR SNPs [3] = assay: NE-stimulated IP production, transiently expressed polymorphic receptors; type: cell-based; conditions: any polymorphic receptor, transient expression 1.30-1.98 pmol/mg protein
Method: Effect of human α1aAR SNPs on IP signaling in transiently transfected rat-1 fibroblasts (receptor densities 1.30-1.98 pmol/mg protein). […] For each construct, IP assay, binding assay and cell number were measured in paralleled plates. […] Basal IP release.
Transient transfection was also used to express receptors for binding and IP experiments in order to verify consistent behavior using alternative methods of protein expression.
Measurement of Intracellular Inositol Phosphate (IP) Production. Rat-1 cells expressing either the WT or mutated α1aAR grown on 12-well plates were labeled with [^3H]inositol for 20-24 h with 2.5 μCi/ml in complete DMEM. Measurement of intracellular IP production was performed under serum-free conditions. […] For all experiments, membranes were collected for receptor quantititation and cells were counted at the time of assay.

human α1aAR SNPs [4] = assay: NE-induced desensitization of IP response, receptors with any SNP; type: cell-based; conditions: high or low expression level
Method: as §3

human α1aAR WT [5] = target: T1, human α1aAR WT; assay: [125I]HEAT saturation binding on membranes, WT high expressing clone; conditions: membranes from WT α1aAR high expressing clone, rat-1 fibroblasts, 1.77±0.24 pmol/mg protein
Method: (§1) Cell Culture and Transfection. Rat-1 fibroblasts were cultured in DMEM supplemented with 10% FBS at 37° C. Cells were transfected with either the WT (reference sequence with all major alleles, GenBank accession number L31774) or mutated α1aAR in pcDNA3 by calcium phosphate precipitation. For stable transfection, clones resistant to G418 (0.8 mg/ml) were isolated and tested for receptor expression. Two different expression levels were chosen for receptor functional investigation. Low receptor expression level was defined a priori as <0.5 pmol/mg total protein, while high-level expression was defined as >1.5 pmol/mg protein.
(§2) Membrane Preparation and Radioligand Binding. Rat-1 membrane preparation and ligand binding assay using the α1AR selective antagonist, [^125I]HEAT, were performed as previously described (Schwinn et al, J. Pharmacol. Exp. Ther. 272:134-142 (1995)).
Pharmacological Characterization. In order to examine whether these polymorphic α1aARs have altered ligand binding characteristics, saturation binding isotherms were first performed to determine the dissociation constant (Kd) for the antagonist [^125I]HEAT, followed by competition assays designed to determine binding affinities for a series of α1aAR agonists and antagonists.

human α1aAR SNPs [6] = assay: [125I]HEAT saturation binding on membranes, receptors containing each SNP; conditions: expression 1.53-2.37 pmol/mg
Method: In Vitro Site-Directed Mutagenesis in the aoclar. Site-directed mutagenesis was utilized to introduce mutations corresponding to each SNP in hemagglutinin-tagged human α1aAR previously placed in the expression vector pcDNA3 (Price et al, J. Biol. Chem. 277:9570-9579 (2002)). Mutagenesis was performed using the QuickChange™ Site-Directed Mutagenesis Kit (Stratagene) as recommended by the manufacture. All mutations were confirmed by DNA sequencing (Duke University DNA Analysis Facility).
as §1, §2
Pharmacological Characterization. […]

[7] = system: α1aAR F163 (TM4) / F187 (TM5) mutants; conditions: Waugh et al 2000; cited from earlier work
human α1aAR SNP V311I = target: T2, human α1aAR SNP V311I (Homo sapiens, UniProt P35348, V311I); assay: Competition binding vs [125I]HEAT, SNP V311I; conditions: high expressing clone
T2 construct: expressed in transfected cells
T2 sequence (P35348 1-466 V311I): T1 sequence (P35348 1-466) with V311I

human α1aAR SNPs [8] = conditions: receptors containing any SNP, high expressing clones

Q: For `COc1ccccc1N1CCN(CCCNc2c(C)c(=O)n(C)c(=O)n2C)CC1` [5-methylurapidil], which “affinity on substitution of F308 and F312” value (“affinity on substitution” below) ([1]; Waugh et al 2001) is on record?
A: Its value is “decreased affinity”.

Q: With `COc1ccccc1N1CCN(CCN2C(=O)CC3(CCCC3)CC2=O)CC1` [BMY7378] as the molecule, how does the “affinity on substitution” value ([1]; Waugh et al 2001) read?
A: The value was “decreased affinity”.

Q: Which “lower IP production after NE pretreatment (desensitization)” value (human α1aAR WT [2]; high-expression level) does the source give for `NC[C@H](O)c1ccc(O)c(O)c1` [NE, (−)-norepinephrine] here?
A: The value was 33.5±3.2%.

Q: And the “lower IP production after NE pretreatment (desensitization)” value (human α1aAR WT [2]; low-expression level)?
A: Its value is 31.0±3.1%.

Q: And the “maximum IP response vs WT” value (human α1aAR SNPs [3])?
A: Its value is “no significant change”.

Q: And the “agonist-induced desensitization, SNP receptors vs WT” value (human α1aAR SNPs [4])?
A: The value was “no difference in agonist-induced desensitization”.

Q: For `COc1cccc(OC)c1OCCNCC1COc2ccccc2O1` (stereo not drawn) [WB4101], which “affinity on substitution” value ([1]; Waugh et al 2001) is on record?
A: Its value is “decreased affinity”.

Q: Which Kd (human α1aAR WT [5]) does the source give for `O=C1c2ccccc2CCC1CNCCc1ccc(O)c(I)c1` (stereo not drawn) [[^125I]HEAT, ^125I-(2-β-(4-hydroxyphenyl)-ethylamineomethyl)-tetralone] here?
A: Its Kd is 0.0421 ± 0.0065 nM.

Q: Which results are given for `O=C1c2ccccc2CCC1CNCCc1ccc(O)c([125I])c1` (stereo not drawn) [[^125I]HEAT, ^125I-(2-β-(4-hydroxyphenyl)-ethylamineomethyl)-tetralone]?
A: Kd values for [125I]HEAT compared with WT (human α1aAR SNPs [6]): not significantly different from WT; affinity on substitution of F308 and F312 ([1]; Waugh et al 2001): not

Q: For `CNC[C@H](O)c1ccc(O)c(O)c1` [epinephrine, (−)-epinephrine], which “decrease in affinity on mutation of F163 or F187” value [7] is on record?
A: The value was 10 fold.

Q: And the “Ki increase vs WT (decrease in receptor affinity)” value (human α1aAR SNP V311I)?
A: The value was about 3 fold.

Q: Which “change in affinity vs WT” value (human α1aAR SNPs [8]) does the source give for `Cc1cc(C(C)(C)C)c(O)c(C)c1CC1=NCCN1` [oxymetazoline] here?
A: The value was “no change in the affinity”.

Q: For `Cc1ccc(N(CC2=NCCN2)c2cccc(O)c2)cc1` [phentolamine], which “affinity on substitution” value ([1]; Waugh et al 2001) is on record?
A: The value was “not”.

Q: For `COc1cc2nc(N3CCN(C(=O)c4ccco4)CC3)nc(N)c2cc1OC` [prazosin], which “affinity on substitution” value [1] is on record?
A: Its value is “decreased affinity”.
